The experiment deals with T1, ΔF508-CFTR (Homo sapiens, UniProt P13569, DEL508-508).
T1 construct: expressed in transfected cells
As to the kind of experiment: Membrane potential optical (FRET/VIPR) assay, identification of potentiator compounds. The following applies: Table 3, assay not given; for % Activity: relative efficacy. Type of experiment: cell-based. In a few lines:
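Double-addition potentiator screen: compound delivered in gluconate-substituted Cl^--free medium, membrane potential followed via CC2-DMPE/DiSBAC2(3) FRET on VIPR. Cells were ΔF508-CFTR-expressing NIH3T3 mouse fibroblasts, held 2 h at 37° C. then 24 h at 27° C. before assay.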

This note sets out measurements from patent publication US8614327B2 (Vertex Pharmaceuticals Incorporated, priority 2004, dated 2013).

Structures are written as SMILES.

What is called EC50 is the concentration needed to bring the measured effect to its halfway point.

T1 sequence (P13569 with tags, fused parts or gaps DEL508-508): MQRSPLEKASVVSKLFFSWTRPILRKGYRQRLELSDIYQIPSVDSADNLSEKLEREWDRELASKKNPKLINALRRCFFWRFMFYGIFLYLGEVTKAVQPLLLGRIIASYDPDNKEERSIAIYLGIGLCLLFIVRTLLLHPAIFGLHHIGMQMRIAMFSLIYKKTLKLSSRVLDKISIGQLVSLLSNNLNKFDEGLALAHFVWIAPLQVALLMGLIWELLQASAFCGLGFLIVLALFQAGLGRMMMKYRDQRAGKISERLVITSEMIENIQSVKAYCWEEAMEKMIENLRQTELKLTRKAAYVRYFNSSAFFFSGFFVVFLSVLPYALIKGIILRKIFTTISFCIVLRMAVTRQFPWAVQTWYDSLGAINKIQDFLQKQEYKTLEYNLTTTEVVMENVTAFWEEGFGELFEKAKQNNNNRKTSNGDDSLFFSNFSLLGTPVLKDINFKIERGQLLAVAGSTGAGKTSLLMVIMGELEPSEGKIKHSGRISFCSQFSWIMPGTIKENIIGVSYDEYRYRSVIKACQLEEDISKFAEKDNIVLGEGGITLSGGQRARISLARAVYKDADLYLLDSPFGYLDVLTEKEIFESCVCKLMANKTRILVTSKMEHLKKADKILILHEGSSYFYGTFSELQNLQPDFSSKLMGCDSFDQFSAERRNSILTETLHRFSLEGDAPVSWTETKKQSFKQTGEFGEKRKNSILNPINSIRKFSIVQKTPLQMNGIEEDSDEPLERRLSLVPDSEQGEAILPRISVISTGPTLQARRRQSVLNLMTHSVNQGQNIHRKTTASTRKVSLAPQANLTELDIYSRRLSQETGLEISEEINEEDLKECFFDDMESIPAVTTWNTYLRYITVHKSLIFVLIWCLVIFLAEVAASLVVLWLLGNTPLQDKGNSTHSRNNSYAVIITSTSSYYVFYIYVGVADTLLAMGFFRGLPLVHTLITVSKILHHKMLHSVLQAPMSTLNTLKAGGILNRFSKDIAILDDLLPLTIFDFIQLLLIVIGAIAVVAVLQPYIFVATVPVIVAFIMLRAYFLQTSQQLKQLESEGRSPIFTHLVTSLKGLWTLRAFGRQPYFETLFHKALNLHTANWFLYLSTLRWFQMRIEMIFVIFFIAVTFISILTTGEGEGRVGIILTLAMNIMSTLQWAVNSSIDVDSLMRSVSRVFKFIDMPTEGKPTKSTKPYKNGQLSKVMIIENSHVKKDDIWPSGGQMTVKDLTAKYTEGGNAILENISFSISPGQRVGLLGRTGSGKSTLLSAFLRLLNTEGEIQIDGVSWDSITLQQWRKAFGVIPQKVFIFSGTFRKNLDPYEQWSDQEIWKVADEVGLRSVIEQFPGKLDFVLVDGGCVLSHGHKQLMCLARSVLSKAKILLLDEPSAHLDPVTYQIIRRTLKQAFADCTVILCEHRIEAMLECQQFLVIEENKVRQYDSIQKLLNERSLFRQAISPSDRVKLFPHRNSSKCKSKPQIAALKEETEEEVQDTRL

For the molecule `Cc1cccc2[nH]cc(C(=O)Nc3ccc(N4CC[C@H](F)C4)cc3C(F)(F)F)c(=O)c12` [Compound 626, (S)-N-(4-(3-fluoropyrrolidin-1-yl)-2-(trifluoromethyl)phenyl)-5-methyl-4-oxo-1,4-dihydroquinoline-3-carboxamide], the half-maximal effective concentration (EC50) was < 10 µM and the “% Activity” value is recorded as “++ (between 25% to 100%)”.

On to `CC(CO)(CO)c1ccc(NC(=O)c2c[nH]c3ccc(F)cc3c2=O)cc1` [Compound 627, 6-fluoro-N-[4-[2-hydroxy-1-(hydroxymethyl)-1-methyl-ethyl]phenyl]-4-oxo-1H-quinoline-3-carboxamide], for which the EC50 was < 10 µM and the “% Activity” value is “+ (<25%)”.

Consider `O=C(Nc1ccc(OC(F)(F)F)cc1Cl)c1c[nH]c2ccccc2c1=O` [Compound 628, N-[2-chloro-4-(trifluoromethoxy)phenyl]-4-oxo-1H-quinoline-3-carboxamide], for which the EC50 is < 10 µM and the “% Activity” value is “++ (between 25% to 100%)”.

Take `CC(C)(C)OC(=O)[C@@H]1CCCN1c1ccc(NC(=O)c2c[nH]c3ccccc3c2=O)c(C(F)(F)F)c1` [Compound 629, (S)-tert-butyl 1-(4-(4-oxo-1,4-dihydroquinoline-3-carboxamido)-3-(trifluoromethyl)phenyl)pyrrolidine-2-carboxylate]: the EC50 is < 10 µM and the “% Activity” value was “++ (between 25% to 100%)”.

With `O=C(Nc1cc(C(F)(F)F)ccc1C(F)(F)F)c1c[nH]c2ccccc2c1=O` [Compound 630, N-[2,5-bis(trifluoromethyl)phenyl]-4-oxo-1H-quinoline-3-carboxamide], the 50% effective concentration (EC50) was < 10 µM and the “% Activity” value is listed as “++ (between 25% to 100%)”.

Turning to `COC(=O)[C@]1(C)CCCN1c1ccc(NC(=O)c2c[nH]c3ccccc3c2=O)c(C(F)(F)F)c1` [Compound 631, (S)-methyl 2-methyl-1-(4-(4-oxo-1,4-dihydroquinoline-3-carboxamido)-3-(trifluoromethyl)phenyl)pyrrolidine-2-carboxylate], the EC50 is < 10 µM and the “% Activity” value is “+++ (>100%)”.

On to `CC(C)(C)c1cc2cc[nH]c2cc1NC(=O)c1c[nH]c2cc(OC(F)(F)F)ccc2c1=O` [Compound 632, 4-oxo-N-(5-tert-butyl-1H-indol-6-yl)-7-(trifluoromethoxy)-1H-quinoline-3-carboxamide], for which the EC50 is < 10 µM and the “% Activity” value is “++ (between 25% to 100%)”.

Take `CC(C)(C)c1ccc(NC(=O)c2c[nH]c3cccc(O)c3c2=O)cc1O` [Compound 633, 5-hydroxy-N-(3-hydroxy-4-tert-butyl-phenyl)-4-oxo-1H-quinoline-3-carboxamide]: the EC50 is < 10 µM and the “% Activity” value is given as “++ (between 25% to 100%)”.

Regarding `O=C(Nc1ccc(N2CCC[C@H]2CO)cc1C(F)(F)F)c1c[nH]c2ccccc2c1=O` [Compound 634, (S)-N-(4-(2-(hydroxymethyl)pyrrolidin-1-yl)-2-(trifluoromethyl)phenyl)-4-oxo-1,4-dihydroquinoline-3-carboxamide], the EC50 was < 10 µM and the “% Activity” value is “++ (between 25% to 100%)”.

Take `O=C(Nc1ccc(C(F)(F)F)cc1Cl)c1c[nH]c2cccc(O)c2c1=O` [Compound 635, N-[2-chloro-4-(trifluoromethyl)phenyl]-5-hydroxy-4-oxo-1H-quinoline-3-carboxamide]: the EC50 is < 10 µM and the “% Activity” value was “++ (between 25% to 100%)”.

On to `O=C(Nc1ccc(C(F)(F)F)cc1Cl)c1c[nH]c2ccc(F)cc2c1=O` [Compound 636, N-[2-chloro-4-(trifluoromethyl)phenyl]-6-fluoro-4-oxo-1H-quinoline-3-carboxamide], for which the EC50 is < 10 µM and the “% Activity” value is “+ (<25%)”.

Turning to `Cc1cccc2c(=O)c(C(=O)Nc3ccc(C(C)C)cc3C(F)(F)F)c[nH]c12` [Compound 637, N-[4-isopropyl-2-(trifluoromethyl)phenyl]-8-methyl-4-oxo-1H-quinoline-3-carboxamide], the concentration giving a half-maximal response (EC50) is < 10 µM and the “% Activity” value is “+ (<25%)”.

For the molecule `CC(C)(C)c1cc(F)c(NC(=O)c2c[nH]c3c(C(F)(F)F)cccc3c2=O)cc1O` [Compound 638, N-(2-fluoro-5-hydroxy-4-tert-butyl-phenyl)-4-oxo-8-(trifluoromethyl)-1H-quinoline-3-carboxamide], the concentration giving a half-maximal response (EC50) was < 10 µM and the “% Activity” value is “+ (<25%)”.

With `CC(C)N1CCN(c2ccc(NC(=O)c3c[nH]c4ccccc4c3=O)c(C(F)(F)F)c2)CC1` [Compound 639, N-[4-(4-isopropylpiperazin-1-yl)-2-(trifluoromethyl)phenyl]-4-oxo-1H-quinoline-3-carboxamide], the EC50 was < 10 µM and the “% Activity” value is “++ (between 25% to 100%)”.

As for `Cc1ccc2c(=O)c(C(=O)Nc3cc(O)c(C(C)(C)C)cc3C(C)(C)C)c[nH]c2c1` [Compound 640, N-(5-hydroxy-2,4-ditert-butyl-phenyl)-7-methyl-4-oxo-1H-quinoline-3-carboxamide], the EC50 is < 10 µM and the “% Activity” value was “+++ (>100%)”.

`CCOc1cccc2c(=O)c(C(=O)Nc3cc4[nH]ccc4cc3C(C)(C)C)c[nH]c12` [Compound 641, 8-ethoxy-4-oxo-N-(5-tert-butyl-1H-indol-6-yl)-1H-quinoline-3-carboxamide]: the EC50 was 10 to 25 µM and the “% Activity” value is recorded as “+ (<25%)”.

Take `COc1ccc2c(=O)c(C(=O)Nc3ccc(N4CCC[C@@H]4C)cc3C(F)(F)F)c[nH]c2c1` [Compound 642, (S)-7-methoxy-N-(4-(2-methylpyrrolidin-1-yl)-2-(trifluoromethyl)phenyl)-4-oxo-1,4-dihydroquinoline-3-carboxamide]: the EC50 is < 10 µM and the “% Activity” value is given as “++ (between 25% to 100%)”.

As for `Cc1cccc2[nH]cc(C(=O)Nc3ccc(N4CCCC(C)C4)cc3C(F)(F)F)c(=O)c12` (stereo not drawn) [Compound 643, 5-methyl-N-[4-(3-methyl-1-piperidyl)-2-(trifluoromethyl)phenyl]-4-oxo-1H-quinoline-3-carboxamide], the EC50 is < 10 µM and the “% Activity” value is given as “++ (between 25% to 100%)”.

In the case of `Cc1cccc2c(=O)c(C(=O)Nc3cc4[nH]ccc4cc3C(C)(C)C)c[nH]c12` [Compound 644, 8-methyl-4-oxo-N-(5-tert-butyl-1H-indol-6-yl)-1H-quinoline-3-carboxamide], the 50% effective concentration (EC50) is < 10 µM and the “% Activity” value is “+ (<25%)”.

For the molecule `CC(C)(C)c1ccc(NC(=O)c2c[nH]c3ccccc3c2=O)cc1F` [Compound 645, N-(3-fluoro-4-tert-butyl-phenyl)-4-oxo-1H-quinoline-3-carboxamide], the half-maximal effective concentration (EC50) was < 10 µM and the “% Activity” value is reported as “++ (between 25% to 100%)”.

Regarding `CC(C)(C)c1cc2cc[nH]c2cc1NC(=O)c1c[nH]c2cc(F)c(F)cc2c1=O` [Compound 646, 6,7-difluoro-4-oxo-N-(5-tert-butyl-1H-indol-6-yl)-1H-quinoline-3-carboxamide], the EC50 was < 10 µM and the “% Activity” value is reported as “++ (between 25% to 100%)”.

In the case of `Cc1cc(C2CCCCC2)ccc1NC(=O)c1c[nH]c2ccccc2c1=O` [Compound 647, N-(4-cyclohexyl-2-methyl-phenyl)-4-oxo-1H-quinoline-3-carboxamide], the EC50 is < 10 µM and the “% Activity” value is reported as “++ (between 25% to 100%)”.

For the molecule `CCc1cc(C(C)(C)C)c(O)cc1NC(=O)c1c[nH]c2ccc(F)cc2c1=O` [Compound 649, N-(2-ethyl-5-hydroxy-4-tert-butyl-phenyl)-6-fluoro-4-oxo-1H-quinoline-3-carboxamide], the EC50 is < 10 µM and the “% Activity” value is recorded as “++ (between 25% to 100%)”.

In the case of `O=C(Nc1ccc(C(F)(F)F)c(O)c1)c1c[nH]c2ccc(F)cc2c1=O` [Compound 650, 6-fluoro-N-[3-hydroxy-4-(trifluoromethyl)phenyl]-4-oxo-1H-quinoline-3-carboxamide], the concentration giving a half-maximal response (EC50) was < 10 µM and the “% Activity” value is on record as “++ (between 25% to 100%)”.

On to `O=C(Nc1ccc(C2CCCCC2)c(O)c1)c1c[nH]c2ccc(F)cc2c1=O` [Compound 651, N-(4-cyclohexyl-3-hydroxy-phenyl)-6-fluoro-4-oxo-1H-quinoline-3-carboxamide], for which the EC50 is < 10 µM and the “% Activity” value is “++ (between 25% to 100%)”.

In the case of `CC(C)(C)c1cc(C(C)(C)C)c(NC(=O)c2c[nH]c3cc(O)ccc3c2=O)cc1O` [Compound 652, 7-hydroxy-N-(5-hydroxy-2,4-ditert-butyl-phenyl)-4-oxo-1H-quinoline-3-carboxamide], the 50% effective concentration (EC50) is < 10 µM and the “% Activity” value was “++ (between 25% to 100%)”.

In the case of `O=C(Nc1cc(OCc2ccccc2)c(C2CCCCC2)cc1C(F)(F)F)c1c[nH]c2ccccc2c1=O` [Compound 654, N-[5-benzyloxy-4-cyclohexyl-2-(trifluoromethyl)phenyl]-4-oxo-1H-quinoline-3-carboxamide], the EC50 was < 10 µM and the “% Activity” value was “++ (between 25% to 100%)”.

For `O=C(Nc1ccc(N2CC[C@H](O)C2)cc1C(F)(F)F)c1c[nH]c2ccccc2c1=O` [Compound 655, (S)-N-(4-(3-hydroxypyrrolidin-1-yl)-2-(trifluoromethyl)phenyl)-4-oxo-1,4-dihydroquinoline-3-carboxamide], the EC50 is < 10 µM and the “% Activity” value was “++ (between 25% to 100%)”.

In the case of `CC(C)(C)c1cc2cc[nH]c2cc1NC(=O)c1c[nH]c2cccc(F)c2c1=O` [Compound 656, 5-fluoro-4-oxo-N-(5-tert-butyl-1H-indol-6-yl)-1H-quinoline-3-carboxamide], the concentration for a half-maximal effect (EC50) is < 10 µM and the “% Activity” value is “++ (between 25% to 100%)”.

Turning to `CC(C)c1ccc(NC(=O)c2c[nH]c3ccc(Cl)cc3c2=O)c(C(F)(F)F)c1` [Compound 657, 6-chloro-N-[4-isopropyl-2-(trifluoromethyl)phenyl]-4-oxo-1H-quinoline-3-carboxamide], the concentration giving a half-maximal response (EC50) is < 10 µM and the “% Activity” value is listed as “++ (between 25% to 100%)”.
